From patent US10647680B2, “Urea compound, preparation method therefor and medical use thereof” (Ancureall Pharmaceutical (Shanghai) Co., Ltd., priority 2016, dated 2020)

Columns and labels:
[1] = molecular target: T1, CYP2C8 (Homo sapiens, UniProt P10632); test: P450 enzyme inhibition, CYP2C8; assay type: in vitro ADME; conditions: human liver microsomes
T1 construct: human liver microsomes (BD Gentest) (0.5 mg/mL); tissue BD Gentest; host or cells: human liver microsomes
T1 sequence (P10632 1-490): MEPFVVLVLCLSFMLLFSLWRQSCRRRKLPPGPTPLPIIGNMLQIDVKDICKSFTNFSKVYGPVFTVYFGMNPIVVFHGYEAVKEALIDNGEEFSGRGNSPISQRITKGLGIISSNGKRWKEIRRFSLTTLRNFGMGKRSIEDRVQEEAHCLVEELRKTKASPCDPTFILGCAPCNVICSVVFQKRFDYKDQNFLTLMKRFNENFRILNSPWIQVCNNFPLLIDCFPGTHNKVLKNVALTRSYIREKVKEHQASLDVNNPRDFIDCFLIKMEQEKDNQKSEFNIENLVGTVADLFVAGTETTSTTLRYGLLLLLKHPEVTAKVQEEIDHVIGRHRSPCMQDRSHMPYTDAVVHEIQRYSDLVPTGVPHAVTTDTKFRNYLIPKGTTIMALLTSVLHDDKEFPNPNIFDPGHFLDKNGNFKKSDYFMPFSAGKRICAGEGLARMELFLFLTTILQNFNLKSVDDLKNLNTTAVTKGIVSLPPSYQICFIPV
Protocol: (§1) Eight cytochrome p450 enzyme inhibition reactions of human liver microsomes were performed using compound 77 of the present invention as a representative example.
(§2) The main reaction systems and processes: in 37° C. water bath, the test compounds (7 concentrations, 0, 0.25, 0.5, 5, 10, 25, and 50 uM; the final methanol concentration was 1% in the system), human liver microsomes (BD Gentest) (0.5 mg/mL) and reducing coenzyme II (Roche 10621706001) (1 mg/mL) and the corresponding cytochrome p450 enzyme probe substrate were co-incubated for 5 to 20 minutes. Among them, (1) the probe substrate for CYP1A2 was Phenacetin ([…]) (Sigma), and the selective inhibitor alpha-naphthoflavone (2 uM) (Sigma) was for parallel detection as positive control, and they were incubated for 20 minutes. (2) The probe substrate for CYP2b6 was Bupropion (40 uM) (Sigma) and the selective inhibitor Ticlopidine (10 uM) (Sigma) was for parallel detection as positive control, and they were incubated for 20 minutes. (3) The probe substrate of CYP2C8 was Amodiaquine (1 uM) (Sigma), and the selective inhibitor Montelukast (10 uM) (Sigma) was for parallel detection as positive control, and they were incubated for 20 minutes. (4) The probe substrate for CYP2C9 was Diclofenac (2.5 uM) (Sigma), and the selective inhibitor Sulphaphenazole (10 uM) (Sigma) was for parallel detection as positive control, and they were incubated for 20 minutes. (5) The probe substrate for CYP2C19 was Mephenytoin (40 uM) (Sigma), and the selective inhibitor Ticlopidine (10 uM) (Sigma) was for parallel detection as positive control, and they were incubated for 20 minutes. (6) The probe substrate for CYP2D6 was Dextromethorphan (5 uM) (Sigma), and the selective inhibitor Quinidine (10 uM) (Sigma) was for parallel detection as positive control, and they were incubated for 20 minutes. (7) The probe substrates for CYP3A4-T and CYP3A4-M were Testosterone (5 uM) (Sigma) and Midazolam (5 uM) (Sigma), respectively, and the selective inhibitor was Ketoconazole (1 uM) (Sigma), they were detected in parallel as positive control, and incubated for 5 minutes. The reaction system was quenched by adding methanol containing the corresponding internal standard. The internal standard compound was Tolbutamide (Sigma). The concentration of the corresponding metabolites was determined by LC/MS/MS. For the data analysis, the decrease in peak area of the metabolite of the sample after addition of compound 77 relative to the peak area of the metabolite of the solvent control sample was used to calculate the IC50 (concentration of the test substance at 50% inhibition). The percentages of peak areas of metabolites of CYP1A2, CYP2B6, CYP2C8, CYP2C9, 15CYP2C19, CYP2D6, CYP3A4-T, and CYP3A4-M probe substrates after addition of different concentrations of compound 77 and selective inhibitors relative to the solvent control peak areas were shown in the Table 7.

[2] = molecular target: T2, CYP2D6 (Homo sapiens, UniProt P10635); test: P450 enzyme inhibition, CYP2D6; assay type: in vitro ADME; conditions: human liver microsomes
T2 construct: human liver microsomes (BD Gentest) (0.5 mg/mL); tissue BD Gentest; host or cells: human liver microsomes
Protocol: as §1, §2

T2 sequence (P10635 whole entry): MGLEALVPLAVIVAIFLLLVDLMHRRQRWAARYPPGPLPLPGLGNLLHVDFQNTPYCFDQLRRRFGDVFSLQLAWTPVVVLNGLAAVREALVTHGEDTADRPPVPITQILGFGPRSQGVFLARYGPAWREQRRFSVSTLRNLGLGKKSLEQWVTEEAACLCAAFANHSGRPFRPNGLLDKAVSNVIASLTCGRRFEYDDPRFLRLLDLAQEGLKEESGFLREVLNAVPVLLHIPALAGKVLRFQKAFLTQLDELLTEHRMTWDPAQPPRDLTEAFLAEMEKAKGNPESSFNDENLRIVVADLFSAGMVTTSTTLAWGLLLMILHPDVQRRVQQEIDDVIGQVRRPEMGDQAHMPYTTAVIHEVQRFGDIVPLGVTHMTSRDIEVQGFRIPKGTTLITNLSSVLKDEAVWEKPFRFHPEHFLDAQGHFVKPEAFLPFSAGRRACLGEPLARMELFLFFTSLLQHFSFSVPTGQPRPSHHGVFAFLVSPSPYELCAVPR

## COCCOc1ccc2c(c1)ncn2-c1ccc(NC(=O)Nc2cc(C(C)(C)C)n[nH]2)cc1 [Compound 77, 1-(5-tert-butyl-2H-pyrazol-3-yl)-3-{4-[5-(2-methoxyl-ethoxyl)-benzimidazol-1-yl]-phenyl}-urea]
[1]; Concentration 0.25 uM
  CYP2C8 Remaining %: 99.2%
[1]; Concentration 0.5 uM
  CYP2C8 Remaining %: 103.5%
[1]; Concentration 5 uM
  CYP2C8 Remaining %: 90.7%
[1]; Concentration 10 uM
  CYP2C8 Remaining %: 88.5%
[1]; Concentration 25 uM
  CYP2C8 Remaining %: 81.7%
[1]; Concentration 50 uM
  CYP2C8 Remaining %: 49.1%
[1]
  IC50: ≥ 50 µM
[2]; Concentration 0.25 uM
  CYP2D6 Remaining %: 105.1%
[2]; Concentration 0.5 uM
  CYP2D6 Remaining %: 97.7%
[2]; Concentration 5 uM
  CYP2D6 Remaining %: 98.8%
[2]; Concentration 10 uM
  CYP2D6 Remaining %: 96.3%
[2]; Concentration 25 uM
  CYP2D6 Remaining %: 90.3%
[2]; Concentration 50 uM
  CYP2D6 Remaining %: 64.9%
[2]; read-out: half-inhibitory concentration (IC50) of CYP2D6
  IC50: > 50 µM
